Results on 21 compounds are retold here after patent US20160002204A1 (Board of Regents, The University of Texas System, priority 2014, published 2016).

Each structure is given as a SMILES string.

One assay has as its system A549 cells. The experiment in a line: A549 proliferation (viability) assay, Cell Titer Fluor, 72 hours. Conditions: Homo sapiens. In kind it is cell-based. Put shortly:
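Compound exposure lasted 72 h (final DMSO 0.5% v/v) on A549 cells plated at 1000 cells/well one day earlier. Cell Titer Fluor added, 30 min at 37 °C, fluorescence read; EC50 derived by four-parameter logistic curve fitting.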

Assay [1] concerns the target T1, GLS1 (purified recombinant human GAC) (Homo sapiens, UniProt O94925).
T1 sequence (O94925 55-598 isoform O94925-3 limits assumed): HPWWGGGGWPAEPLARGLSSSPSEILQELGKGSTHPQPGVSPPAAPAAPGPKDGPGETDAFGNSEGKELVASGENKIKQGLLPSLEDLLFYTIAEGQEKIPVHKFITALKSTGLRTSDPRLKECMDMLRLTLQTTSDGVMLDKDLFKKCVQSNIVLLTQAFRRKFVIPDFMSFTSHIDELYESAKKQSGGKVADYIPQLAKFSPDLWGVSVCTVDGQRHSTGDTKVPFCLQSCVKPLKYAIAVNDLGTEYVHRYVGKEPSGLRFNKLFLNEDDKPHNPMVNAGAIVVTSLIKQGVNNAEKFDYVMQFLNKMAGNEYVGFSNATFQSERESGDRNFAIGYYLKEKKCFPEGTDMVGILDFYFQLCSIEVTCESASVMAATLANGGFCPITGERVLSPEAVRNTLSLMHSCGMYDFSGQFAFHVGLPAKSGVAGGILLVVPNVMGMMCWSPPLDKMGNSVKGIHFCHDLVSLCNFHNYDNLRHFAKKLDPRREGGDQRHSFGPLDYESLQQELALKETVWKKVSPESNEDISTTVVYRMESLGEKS
The experiment in a line: GLS1 enzymatic activity assay (dual-coupled, Amplex UltraRed/resorufin). Type of assay: biochemical. The gist of the method: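 GAC activity measured by coupling glutamate to glutamate oxidase and HRP, generating resorufin from Amplex UltraRed. Enzyme (2 nM) preincubated with 50 mM potassium phosphate 10 min at room temperature, then inhibitor 10 min; 1 mM glutamine substrate, 1% DMSO. Fluorescence 530/590 nm, kinetic or 20-min endpoint; IC50 from four-parameter logistic fit.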

With `CC(C)(C)OC(=O)Nc1ccn(CCC(F)Cn2cc(C(=O)NCc3cncc(C(F)(F)F)c3)nn2)c(=O)c1F` (stereo not drawn) [Example 330, tert-butyl N-(3-fluoro-1-{3-fluoro-4-[4-({[5-(trifluoromethyl)pyridin-3-yl]methyl}carbamoyl)-1H-1,2,3-triazol-1-yl]butyl}-2-oxo-1,2-dihydropyridin-4-yl)carbamate], the EC50 in the assay on A549 cells fell in the range of 100 to 500 nM. Further, the IC50 in assay [1] is under 100 nM.
The like results for `O=C(Cc1ccccc1)Nc1ccn(CCC(F)Cn2cc(C(=O)NCc3cccc(C(F)(F)F)n3)nn2)c(=O)c1F` (stereo not drawn) [Example 317, 1-{2-fluoro-4-[3-fluoro-2-oxo-4-(2-phenylacetamido)-1,2-dihydropyridin-1-yl]butyl}-N-{[6-(trifluoromethyl)pyridin-2-yl]methyl}-1H-1,2,3-triazole-4-carboxamide] were, in that order, under 100 nM and under 100 nM.
The like results for `O=C(CC1CCCCC1)Nc1ccn(CCC(F)Cn2cc(C(=O)NCc3cncc(C(F)(F)F)c3)nn2)c(=O)c1F` (stereo not drawn) [Example 259, 1-{4-[4-(2-cyclohexylacetamido)-3-fluoro-2-oxo-1,2-dihydropyridin-1-yl]-2-fluorobutyl}-N-{[5-(trifluoromethyl)pyridin-3-yl]methyl}-1H-1,2,3-triazole-4-carboxamide] were, in that order, under 100 nM and under 100 nM.
The matching figures for `Cc1ccc(CNC(=O)c2cn(CC(F)CCn3ccc(NC(=O)CC4CCCCC4)cc3=O)nn2)cn1` (stereo not drawn) [Example 177, 1-{4-[4-(2-cyclohexylacetamido)-2-oxo-1,2-dihydropyridin-1-yl]-2-fluorobutyl}-N-[(6-methylpyridin-3-yl)methyl]-1H-1,2,3-triazole-4-carboxamide]: under 100 nM and under 100 nM.
The compound `O=C(Cc1cccc(OC(F)(F)F)c1)Nc1ccc(CCCCn2ccc(NC(=O)OCc3ccccc3)nc2=O)nn1` [Example 24, Benzyl(2-oxo-1-(4-(6-(2-(3-(trifluoromethoxy)phenyl)acetamido)pyridazin-3-yl)butyl)-1,2-dihydropyrimidin-4-yl)carbamate] returned an EC50 in the assay with A549 cells of under 100 nM. Also, in assay [1], the IC50 is under 100 nM.
`O=C(Nc1ccn(CCC(F)Cn2cc(C(=O)NCc3cc(C(F)(F)F)ccn3)nn2)c(=O)n1)OC1CCC(F)(F)CC1` (stereo not drawn) [Example 495, 4,4-difluorocyclohexyl N-(1-{3-fluoro-4-[4-({[4-(trifluoromethyl)pyridin-2-yl]methyl}carbamoyl)-1H-1,2,3-triazol-1-yl]butyl}-2-oxo-1,2-dihydropyrimidin-4-yl)carbamate]: the EC50 in the assay on A549 cells lay within 500 to 5000 nM. Also, the half-inhibitory concentration (IC50) in assay [1] was under 100 nM.
With `O=C(CC1CCCC1)Nc1ccn(CCC(F)Cn2cc(C(=O)NCc3ccc(CF)nc3)nn2)c(=O)c1F` (stereo not drawn) [Example 388, 1-{4-[4-(2-cyclopentylacetamido)-3-fluoro-2-oxo-1,2-dihydropyridin-1-yl]-2-fluorobutyl}-N-{[6-(fluoromethyl)pyridin-3-yl]methyl}-1H-1,2,3-triazole-4-carboxamide], the EC50 in the assay with A549 cells was under 100 nM. For the same compound, the 50% inhibitory concentration (IC50) in assay [1] is under 100 nM.
For `COCCOc1cccc(CC(=O)Nc2ccn(CCC(F)Cn3cc(C(=O)NCc4cccc(OC(F)(F)F)c4)nn3)c(=O)c2)c1` (stereo not drawn) [Example 185, 1-[2-fluoro-4-(4-{2-[3-(2-methoxyethoxy)phenyl]acetamido}-2-oxo-1,2-dihydropyridin-1-yl)butyl]-N-{[3-(trifluoromethoxy)phenyl]methyl}-1H-1,2,3-triazole-4-carboxamide], the EC50 in the assay with A549 cells lay within 500 to 5000 nM. Besides, the IC50 in assay [1] was under 100 nM.
The matching figures for `O=C(CC1CCCCC1)Nc1ccn(CCC(F)Cn2cc(C(=O)NCc3cccc(OC(F)(F)F)c3)nn2)c(=O)c1F` (stereo not drawn) [Example 212, 1-{4-[4-(2-cyclohexylacetamido)-3-fluoro-2-oxo-1,2-dihydropyridin-1-yl]-2-fluorobutyl}-N-{[3-(trifluoromethoxy)phenyl]methyl}-1H-1,2,3-triazole-4-carboxamide]: under 100 nM and under 100 nM.
The matching figures for `CC(C)OC(=O)Nc1ccn(CCCCc2ccc(NC(=O)Cc3ccccc3)nn2)c(=O)n1` [Example 94, propan-2-yl N-(2-oxo-1-{4-[6-(2-phenylacetamido)pyridazin-3-yl]butyl}-1,2-dihydropyrimidin-4-yl)carbamate]: 100 to 500 nM and under 100 nM.
In the assay on A549 cells, `O=C(CC1CCCCC1)Nc1ccn(CCCCn2cc(C(=O)NCc3cccnc3)nn2)c(=O)c1` [Example 191, 1-{4-[4-(2-cyclohexylacetamido)-2-oxo-1,2-dihydropyridin-1-yl]butyl}-N-(pyridin-3-ylmethyl)-1H-1,2,3-triazole-4-carboxamide] returned a concentration for a half-maximal effect (EC50) of 100 to 500 nM. For the same compound, the IC50 in assay [1] was under 100 nM.
Compound `O=C(NCc1ccccc1)c1ccn(CCCCn2cc(C(=O)NCc3cccc(OC(F)(F)F)c3)nn2)c(=O)c1` [Example 8, N-Benzyl-2-oxo-1-(4-(4-((3-(trifluoromethoxy)benzyl)carbamoyl)-1H-1,2,3-triazol-1-yl)butyl)-1,2-dihydropyridine-4-carboxamide] returned an EC50 with A549 cells of 100 to 500 nM. The IC50 in assay [1] is under 100 nM.
The matching figures for `O=C(Nc1ccn(CCC(F)Cn2cc(C(=O)NCc3cc(OC(F)(F)F)ccc3F)nn2)c(=O)c1F)C(=O)N1CCCCC1` (stereo not drawn) [Example 422, 11-(2-fluoro-4-(3-fluoro-2-oxo-4-(2-oxo-2-(piperidin-1-yl)acetamido)pyridin-1(2H)-yl)butyl)-N-(2-fluoro-5-(trifluoromethoxy)benzyl)-1H-1,2,3-triazole-4-carboxamide]: under 100 nM and under 100 nM.
The like results for `CC(C)CNC(=O)c1cn(CCCCn2ccc(NC(=O)Cc3ccccc3)cc2=O)nn1` [Example 35, N-(2-methylpropyl)-1-{4-[2-oxo-4-(2-phenylacetamido)-1,2-dihydropyridin-1-yl]butyl}-1H-1,2,3-triazole-4-carboxamide] were, in that order, over 5000 nM and 500 to 5000 nM.
Compound `CCNC(=O)Nc1ccn(CCCCc2ccc(NC(=O)Cc3ccccc3)nn2)c(=O)n1` [Example 86, N-[6-(4-{4-[(ethylcarbamoyl)amino]-2-oxo-1,2-dihydropyrimidin-1-yl}butyl)pyridazin-3-yl]-2-phenylacetamide] gave an EC50 in the assay on A549 cells of over 5000 nM. For the same compound, in assay [1], the half-maximal inhibitory concentration (IC50) was in the range of 500 to 5000 nM.
Compound `Nc1ccn(CCC(F)Cn2cc(C(=O)NCc3cncc(C(F)(F)F)c3)nn2)c(=O)c1F` (stereo not drawn) [Example 331, 1-[4-(4-amino-3-fluoro-2-oxo-1,2-dihydropyridin-1-yl)-2-fluorobutyl]-N-{[5-(trifluoromethyl)pyridin-3-yl]methyl}-1H-1,2,3-triazole-4-carboxamide] showed an EC50 with A549 cells of over 5000 nM. In assay [1], the IC50 was in the range of 500 to 5000 nM.
The like results for `CC(OC(=O)Nc1ccn(CCC(F)Cn2cc(C(=O)NCc3cccc(OC(F)(F)F)c3)nn2)c(=O)n1)c1ccccc1` (stereo not drawn) [Example 497, 1-phenylethyl N-(1-{3-fluoro-4-[4-({[3-(trifluoromethoxy)phenyl]methyl}carbamoyl)-1H-1,2,3-triazol-1-yl]butyl}-2-oxo-1,2-dihydropyrimidin-4-yl)carbamate] were, in that order, 100 to 500 nM and under 100 nM.
The like results for `CC(C)COC(=O)Nc1ccn(CCCCc2ccc(NC(=O)Cc3cccc(OC(F)(F)F)c3)nn2)c(=O)n1` [Example 104, 2-methylpropyl N-{2-oxo-1-[4-(6-{2-[3-(trifluoro-methoxy)phenyl]acetamido}pyridazin-3-yl)butyl]-1,2-dihydropyrimidin-4-yl}carbamate] were, in that order, under 100 nM and under 100 nM.
The like results for `CS(=O)(=O)N1CCN(CC(=O)Nc2ccn(CCC(F)Cn3cc(C(=O)NCc4cccc(OC(F)(F)F)c4)nn3)c(=O)c2)CC1` (stereo not drawn) [Example 279, 1-(2-fluoro-4-{4-[2-(4-methanesulfonylpiperazin-1-yl)acetamido]-2-oxo-1,2-dihydropyridin-1-yl}butyl)-N-{[3-(trifluoromethoxy)phenyl]methyl}-1H-1,2,3-triazole-4-carboxamide] were, in that order, over 5000 nM and under 100 nM.
Turning to `O=C(NCc1cccc(OC(F)(F)F)c1)c1cn(CC(F)CCn2ccc(COc3ccccn3)cc2=O)nn1` (stereo not drawn) [Example 480, 1-(2-fluoro-4-{2-oxo-4-[(pyridin-2-yloxy)methyl]-1,2-dihydropyridin-1-yl}butyl)-N-{[3-(trifluoromethoxy)phenyl]methyl}-1H-1,2,3-triazole-4-carboxamide], in the assay with A549 cells, the EC50 fell in the range of 500 to 5000 nM. The IC50 in assay [1] is 100 to 500 nM.
For the compound `CC(C)NC(=O)Nc1ccn(CCCCc2ccc(NC(=O)Cc3cccc(OC(F)(F)F)c3)nn2)c(=O)n1` [Example 106, N-{6-[4-(2-oxo-4-{[(propan-2-yl)carbamoyl]amino}-1,2-dihydropyrimidin-1-yl)butyl]pyridazin-3-yl}-2-[3-(trifluoromethoxy)phenyl]acetamide], the EC50 in the assay with A549 cells lay within 500 to 5000 nM. Also, in assay [1], the IC50 is 100 to 500 nM.
